# Patent US9676789B2, “Aminated derivative of homoharringtonine, preparation method therefor, and application thereof” (HANGZHOU BENSHENG PHARMACEUTICAL CO., LTD., priority 2011, dated 2017)
# Key:
# [1] = tested on: Hep-2 (human hepatocellular carcinoma); test: MTT solid tumor cell growth inhibition, 72 h; type: cell-based; settings: Homo sapiens, HEp-2, Hep2, 72 h; for IC50: read-out: IC50; for IC90: read-out: IC90
# Experimental: (§1) Human solid tumor cell lines: Hep-2 ([…]), A549 (human lung cancer), CaES-17 (esophageal cancer cell), PC-3 (prostate cancer), CNE (nasopharyngeal carcinoma cell), and SK-OV-3 (ovarian cancer cell), all of which are purchased from China Center For Type Culture Collection; RKO (human colon adenocarcinoma cell), MGC 803 (human gastric cancer cell), MG63 (osteosarcoma) and U87 MG (malignant glioma cell), all of which are purchased from Fuxiang Bio-tech Co. Ltd., Shanghai, China; PANC-1 (pancreatic cancer), Huh7 (human liver cancer cell), Becap37 (human breast cancer cell), and Hela (human cervical cancer cell), all of which are donated by Cancer Research Institute of Zhejiang University, China.
# (§2) Obtaining 4000 well-growing human solid tumor cells and inoculating them into wells of a 96-well cell culture plate. The culture medium is DMEM High Glucose cell culture medium containing 10% fetal bovine serum. The plate is placed in a carbon dioxide cell incubator (5% CO2) at 37° C. and incubating for 24 hours. After adding the homoharringtonine derivatives of different concentration and mixing uniformly, the plate is placed in a carbon dioxide cell incubator (5% CO2) at 37° C. and incubating for 72 hours. Then the viable cell concentration is determined by the MTT method and the cell viability (%) after drug treatment is calculated. In this experiment, the cell viability of control group (not treated with any compound) is set as 100%.
# A549 (human lung cancer) = test: MTT solid tumor cell growth inhibition, 72 h; type: cell-based; settings: Homo sapiens, A549, 72 h; for IC50: read-out: IC50; for IC90: read-out: IC90
# Experimental: as §1, §2
# [2] = tested on: MGC 803 (human gastric cancer cell); test: MTT solid tumor cell growth inhibition, 72 h; type: cell-based; settings: Homo sapiens, MGC 803, 72 h; for IC50: read-out: IC50; for IC90: read-out: IC90
# Experimental: as §1, §2
# [3] = tested on: Hela (human cervical cancer cell); test: MTT solid tumor cell growth inhibition, 72 h; type: cell-based; settings: Homo sapiens, HeLa; for IC50: read-out: IC50; for IC90: read-out: IC90
# Experimental: as §1, §2
# [4] = tested on: Huh7 (human liver cancer cell); test: MTT solid tumor cell growth inhibition, 72 h; type: cell-based; settings: Homo sapiens, Huh-7, Huh7, 72 h; for IC50: read-out: IC50; for IC90: read-out: IC90
# Experimental: as §1, §2
# [5] = tested on: RKO (human colon adenocarcinoma cell); test: MTT solid tumor cell growth inhibition, 72 h; type: cell-based; settings: Homo sapiens; for IC50: read-out: IC50; for IC90: read-out: IC90
# Experimental: as §1, §2
# [6] = tested on: Becap37 (human breast cancer cell); test: MTT solid tumor cell growth inhibition, 72 h; type: cell-based; settings: Homo sapiens, Becap37, 72 h; for IC50: read-out: IC50; for IC90: read-out: IC90
# Experimental: as §1, §2
# [7] = tested on: RPMI8226 (multiple myeloma); test: MTT multiple myeloma cell growth inhibition, 72 h; type: cell-based, human; settings: Homo sapiens, RPMI-8226, RPMI8226, 72 h; for IC50: read-out: IC50; for IC90: read-out: IC90
# Experimental: Multiple myeloma and lymphoma cell lines: RPMI8226 (multiple myeloma), purchased from Fuxiang Bio-tech Co. Ltd., Shanghai, China.
# (§3) Obtaining 6000 well-growing leukemia cells and inoculating them into wells of a 96-well cell culture plate. The culture medium is the 1640 cell culture medium containing 10% fetal bovine serum. After adding the homoharringtonine derivatives of different concentrations and mixing uniformly, placing the plate in a carbon dioxide cell incubator (5% CO2) at 37° C. and incubating for 72 hours. Then the viable cell concentration is determined by the MTT method.
# [8] = tested on: SK-OV-3 (ovarian cancer cell); test: MTT solid tumor cell growth inhibition, 72 h; type: cell-based, human; settings: Homo sapiens, SK-OV-3, 72 h; for IC50: read-out: IC50; for IC90: read-out: IC90
# Experimental: as §1, §2
# MG63 (osteosarcoma) = test: MTT solid tumor cell growth inhibition, 72 h; type: cell-based, human; settings: Homo sapiens, MG 63, 72 h; for IC50: read-out: IC50; for IC90: read-out: IC90
# Experimental: as §1, §2
# [9] = tested on: PANC-1 (pancreatic cancer); test: MTT solid tumor cell growth inhibition, 72 h; type: cell-based, human; settings: Homo sapiens, PANC-1, 72 h; for IC50: read-out: IC50; for IC90: read-out: IC90
# Experimental: as §1, §2
# [10] = tested on: U87 MG (malignant glioma cell); test: MTT solid tumor cell growth inhibition, 72 h; type: cell-based, human; settings: Homo sapiens, U-87 MG; for IC50: read-out: IC50; for IC90: read-out: IC90
# Experimental: as §1, §2
# [11] = tested on: CNE (nasopharyngeal carcinoma cell); test: MTT solid tumor cell growth inhibition, 72 h; type: cell-based, human; settings: Homo sapiens; for IC50: read-out: IC50; for IC90: read-out: IC90
# Experimental: as §1, §2
# [12] = tested on: CaES-17 (esophageal cancer cell); test: MTT solid tumor cell growth inhibition, 72 h; type: cell-based, human; settings: Homo sapiens, CaEs17, CaES-17, 72 h; for IC50: read-out: IC50; for IC90: read-out: IC90
# Experimental: as §1, §2
# PC-3 (prostate cancer) = test: MTT solid tumor cell growth inhibition, 72 h; type: cell-based, human; settings: Homo sapiens, PC-3, 72 h; for IC50: read-out: IC50; for IC90: read-out: IC90
# Experimental: as §1, §2
# [13] = tested on: Kasumi-1 (acute myeloid leukemia M2 type, AML-M2); test: MTT leukemia cell growth inhibition, 72 h; type: cell-based, human; settings: Homo sapiens, Kasumi-1, 72 h; for IC50: read-out: IC50; for IC90: read-out: IC90
# Excerpt: (§4) Leukemia cell lines: K562/adr (drug-resistant, chronic myeloid leukemia, CML), NB4 (acute promyelocytic leukemia, AML), Kasumi-1 (acute myeloid leukemia M2 type, AML-M2), Jurkat (acute lymphoblastic leukemia, ALL), all of which are donated by Cancer Research Institute of Zhejiang University, China; and H9 (acute lymphoblastic leukemia, ALL), which is purchased from China Center for Type Culture Collection.
# as §3, with “method. In this experiment, the cell viability in control group (not treated with any compound) is set as 100%.” for “method.”
# [14] = tested on: K562/adr (drug-resistant, chronic myeloid leukemia, CML); test: MTT leukemia cell growth inhibition, 72 h; type: cell-based, human; settings: Homo sapiens, K562/Adr; for IC50: read-out: IC50; for IC90: read-out: IC90
# Excerpt: as §4
# as §3, with “method. In this experiment, the cell viability in control group (not treated with any compound) is set as 100%.” for “method.”
# [15] = tested on: Jurkat (acute lymphoblastic leukemia, ALL); test: MTT leukemia cell growth inhibition, 72 h; type: cell-based, human; settings: Homo sapiens; for IC50: read-out: IC50; for IC90: read-out: IC90
# Excerpt: as §4
# as §3, with “method. In this experiment, the cell viability in control group (not treated with any compound) is set as 100%.” for “method.”
# [16] = tested on: NB4 (acute promyelocytic leukemia, AML); test: MTT leukemia cell growth inhibition, 72 h; type: cell-based, human; settings: Homo sapiens, NB4, 72 h; for IC50: read-out: IC50; for IC90: read-out: IC90
# Excerpt: as §4
# as §3, with “method. In this experiment, the cell viability in control group (not treated with any compound) is set as 100%.” for “method.”
# [17] = tested on: H9 (acute lymphoblastic leukemia, ALL); test: MTT leukemia cell growth inhibition, 72 h; type: cell-based, human; settings: Homo sapiens, H9, 72 h; for IC50: read-out: IC50; for IC90: read-out: IC90
# Excerpt: as §4
# as §3, with “method. In this experiment, the cell viability in control group (not treated with any compound) is set as 100%.” for “method.”
SMILES,IC50 [1],IC90 [1],IC50 (A549 (human lung cancer)),IC90 (A549 (human lung cancer)),IC50 [2],IC90 [2],IC50 [3],IC90 [3],IC50 [4],IC90 [4],IC50 [5],IC90 [5],IC50 [6],IC90 [6],IC50 [7],IC90 [7],IC50 [8],IC90 [8],IC50 (MG63 (osteosarcoma)),IC90 (MG63 (osteosarcoma)),further results
COC1=C[C@]23CCCN2CCc2cc4c(cc2[C@@H]3[C@@H]1OC(=O)[C@@](O)(CCCC(C)(C)O)CC(=O)N1CCN(C(C)C)CC1)OCO4 [BS-HH-034],1.29 µg/mL,> 16 µg/mL,1.74 µg/mL,> 16 µg/mL,0.81 µg/mL,11.8 µg/mL,1.97 µg/mL,> 16 µg/mL,1.05 µg/mL,> 16 µg/mL,0.18 µg/mL,1.25 µg/mL,0.81 µg/mL,> 16 µg/mL,0.47 µg/mL,3.72 µg/mL,2.81 µg/mL,> 16 µg/mL,0.32 µg/mL,16 µg/mL,IC50 [9]: 1.94 µg/mL; IC90 [9]: > 16 µg/mL; IC50 [10]: 0.89 µg/mL; IC90 [10]: 5.74 µg/mL; IC50 [11]: 0.49 µg/mL; IC90 [11]: 16 µg/mL; IC50 [12]: 1.91 µg/mL; IC90 [12]: 16 µg/mL; IC50 (PC-3 (prostate cancer)): 0.91 µg/mL; IC90 (PC-3 (prostate cancer)): > 16 µg/mL; IC50 [13]: 0.31 µg/mL; IC90 [13]: 1.77 µg/mL; IC50 [14]: 4.53 µg/mL; IC90 [14]: 16 µg/mL; IC50 [15]: 0.46 µg/mL; IC90 [15]: 16 µg/mL; IC50 [16]: 0.48 µg/mL; IC90 [16]: 2.3 µg/mL; IC50 [17]: 0.6 µg/mL; IC90 [17]: 2.7 µg/mL
COC1=C[C@]23CCCN2CCc2cc4c(cc2[C@@H]3[C@@H]1OC(=O)[C@@](O)(CCCC(C)(C)O)CC(=O)N1CCN(c2ccccn2)CC1)OCO4 [BS-HH-044],1.23 µg/mL,> 16 µg/mL,1.76 µg/mL,> 16 µg/mL,0.74 µg/mL,> 16 µg/mL,1.91 µg/mL,> 16 µg/mL,0.94 µg/mL,> 16 µg/mL,0.16 µg/mL,2.37 µg/mL,0.71 µg/mL,> 16 µg/mL,0.48 µg/mL,3.36 µg/mL,3.97 µg/mL,> 16 µg/mL,0.8 µg/mL,> 16 µg/mL,IC50 [9]: 1.91 µg/mL; IC90 [9]: > 16 µg/mL; IC50 [10]: 0.64 µg/mL; IC90 [10]: 16 µg/mL; IC50 [11]: 0.76 µg/mL; IC90 [11]: > 16 µg/mL; IC50 [12]: 1.63 µg/mL; IC90 [12]: 16 µg/mL; IC50 (PC-3 (prostate cancer)): 0.78 µg/mL; IC90 (PC-3 (prostate cancer)): > 16 µg/mL; IC50 [13]: 0.38 µg/mL; IC90 [13]: 2.25 µg/mL; IC50 [14]: 5.18 µg/mL; IC90 [14]: 16 µg/mL; IC50 [15]: 0.48 µg/mL; IC90 [15]: 16 µg/mL; IC50 [16]: 0.25 µg/mL; IC90 [16]: 0.64 µg/mL; IC50 [17]: 1.41 µg/mL; IC90 [17]: 16 µg/mL
